Laboratory results from patent EP0934746B1, “SUBSTANCE IN THE FORM OF AN AQUEOUS EXTRACT OF VEGETAL RAW MATERIAL FOR TREATING ONCOLOGICAL DISEASES, AND METHOD FOR PRODUCING THE SAME” (Gosudarstvenny Nauchny Tsentr Rossiiskoi Federatsii …, priority 1996, dated 1998).

Columns and labels:
[1] = test system: lipid peroxidation processes (LPP) in murine liver homogenate; assay: Antioxidant activity: inhibition of lipid peroxidation processes (LPP) in liver homogenate, thiobarbituric acid colour reaction; type: biochemical, BDF-1 (nondescript) mice; details: conventional unit = quantity required for 50% inhibition of LPP; 3 h at 37°C
Method: The antioxidant activity of the extracts was determined from the ability of a sample to inhibit the lipid peroxidation processes (LPP) in murine liver homogenate.
The antioxidant activity was used by using a method based on the ability of the sample being investigated to inhibit LPP processes in murine liver homogenate. The liver of BDF-1 (nondescript) mice was homogenized in a glass homogenizer and then centrifugated. The liver homogenate was introduced in an amount of 5-6 mg of protein per assay. The volume of the assay was brought to 0.5 ml with a solution of the sample being tested for the antioxidant activity. The assays were incubated for 3 h at 37°C.
The concentration of the LPP products was determined from the color reaction with thiobarbituric acid. The quantity of the antioxidant required for the 50% inhibition of LPP was adopted as a conventional unit of the sample under investigation.

[2] = test system: cell culture of human pulmonary adenocarcinoma A-549; assay: Cytotoxic activity in vitro: inhibition of proliferation of A-549 cell culture, colorimetric; type: cell-based
Method: The cytotoxic activity of the extracts in vitro was determined with the help of a biological test based on inhibition of the proliferation of the inoculated cell culture of human pulmonary adenocarcinoma A-549 [7].
When carrying out the cytotoxic biological test in vitro, each well of a flat-bottomed 96-well microtiter (Sarstedt, USA) was charged with 10 µl of a suspension of A549-line cells in a concentration of 1x10^5 cell/ml; 24 h later series dilutions of the vegetable preparations in the range of 1:4-1:64 were added, this corresponding to 3.0-0.1 mg/ml in the volume of 100 µl/well. The cytotoxic activity of the extracts and DDP was estimated colorimetrically. The results were expressed in the percentage of inhibition of the A-549 test-culture proliferation. The cytotoxic activity of the sample was adopted to be the maximum titer of the sample, at which the biologically significant (50%) level of inhibition of the A-549 test-culture proliferation was observed.

Lymphoid leukemia L1210 = assay: Influence of extract samples on curative effect of DDP in L1210 leukemia (TGI, LI); type: in vivo, mice BDF1; details: for TGI, % days 4: day 4; for TGI, % days 6: day 6; for TGI, % days 8: day 8; for LI, %: lifetime increase
Method: In addition, the effect of the extracts on the therapeutic activity of the cytostatic cis-dichlorodiamine platinum (DDP) was estimated.
Lymphoid leukemia L1210 was inoculated to BDF1 males in a sterile physiologic salt solution, 3x10^6 cells in 0.2 ml volume. The day of the inoculation was regarded as the zero day of tumor growth. The extract samples and DDP were administered in the doses and under the conditions specified in Tables 4, 5.
Treatment of the animals was started 24 hours after the tumor inoculation, control animals were administered a physiologic salt solution instead of the vegetable extracts. The antitumoric effect was estimated from the tumor growth inhibition (TGI) calculated from theformula: TGI = [(Vcontrol - Vexperiment)/Vcontrol]x100%; [formula] mean lifetime (ML), lifetime increase (LI) calculated from the formula: LI = [(MLexperiment - MLcontrol)/Mlcontrol]x100%. [formula] TGI > 50%, LI > 50% were considered to be biologically significant effects.
The obtained data were processed in accordance with the Fisher-Student procedure, using statistical programs. The differences were regarded confident at p < 0.05.

`O=C1O[C@H]([C@@H](O)CO)C(O)=C1O` [Ascorbic acid (vitamin C), Ascorbic acid] was tested, and the “Antioxidant activity, conv. units (1/mg)” value [1] was 12 conv. units (1/mg).

For `N.N.[Cl][Pt][Cl]` [DDP, cis-dichlorodiamine platinum], the “Inhibition, %” value ([2]; A-549 proliferation, at the titer/concentration in the column beside it) was 68%, the “Maximum titer (as concentration)” value ([2]; DDP control) was 10 µg/mL and the “ability to inhibit proliferation of the cell culture A-549” value ([2]; at the concentration of 0.01 mg/ml) was 68%. For the same compound, the “TGI, % days 4” value (Lymphoid leukemia L1210; DDP alone 9 mg/kg) was 100%, the “TGI, % days 6” value (Lymphoid leukemia L1210; DDP alone 9 mg/kg) was 93% and the “TGI, % days 8” value (Lymphoid leukemia L1210; DDP alone 9 mg/kg) was 33%. The “LI, %” value (Lymphoid leukemia L1210; DDP alone 9 mg/kg) was 41%, the “TGI, % days 4” value (Lymphoid leukemia L1210; DDP alone 10 mg/kg) was 100% and the “TGI, % days 6” value (Lymphoid leukemia L1210; DDP alone 10 mg/kg) was 87%. For the same compound, the “TGI, % days 8” value (Lymphoid leukemia L1210; DDP alone 10 mg/kg) was 65% and the “LI, %” value (Lymphoid leukemia L1210; DDP alone 10 mg/kg) was 32%.

With `CC1=C(/C=C/C(C)=C/C=C/C(C)=C/C=C/C=C(C)/C=C/C=C(C)/C=C/C2=C(C)CCCC2(C)C)C(C)(C)CCC1` [β-Carotene] the “Antioxidant activity, conv. units (1/mg)” value [1] was 6 conv. units (1/mg).

With “Retinol acetate [Retinol acetate (vitamin A)]” the “Antioxidant activity, conv. units (1/mg)” value [1] was 83 conv. units (1/mg).
